The numbers were not newly measured in patent publication US20160007613A1, “Clonostachys rosea Inoculated Plant Materials with Fungicides and Adjuvants” (priority 2014, published 2016), which cites them from elsewhere.

This data set deals with Clonostachys rosea ACM941. The settings on record: research by Sutton and Brown; in words.

Take `CN(C)C(=S)SSC(=S)N(C)C` [thiram]: the “toxicity to Clonostachys rosea ACM941” value is given as “toxic”.
As for `COCC(=O)N(c1c(C)cccc1C)C(C)C(=O)OC` (centres unmarked) [metalaxyl], the “toxicity to Clonostachys rosea ACM941” value is “not metalaxyl is toxic”.
